Measurements as given in ChEMBL document CHEMBL5108072, “Discovery of Chlorofluoroacetamide-Based Covalent Inhibitors for Severe Acute Respiratory Syndrome Coronavirus 2 3CL Protease” (J Med Chem, 2022).

These compounds were tested on SARS-CoV-2 (assay: microbe, parasite or virus in culture). Conditions: Severe acute respiratory syndrome coronavirus 2, omicron TY38-873 BA.2, HEK-293T.

First: COc1cccc2[nH]c(C(=O)N[C@@H](CC(C)C)C(=O)NN(C[C@@H]3CCNC3=O)C(=O)[C@H](F)Cl)cc12
Second: COc1cccc2[nH]c(C(=O)N[C@@H](CC(C)C)C(=O)NN(C[C@H]3CCNC3=O)C(=O)[C@H](F)Cl)cc12
The EC50 of the first is 6.6-fold lower: 18.3 nM for the first, 121 nM for the second. The first is the more potent here.

Compared with `CC(C)C[C@H](NC(=O)c1cc2c(F)cccc2[nH]1)C(=O)NN(C[C@@H]1CCNC1=O)C(=O)[C@@H](F)Cl`, `CC(C)C[C@H](NC(=O)c1cc2c(F)cccc2[nH]1)C(=O)NN(C[C@@H]1CCNC1=O)C(=O)[C@H](F)Cl` is 7.4-fold lower in EC50: 126 nM for the first, 17.1 nM for the second.

Going from `O=c1nc(NO)ccn1[C@@H]1O[C@H](CO)[C@@H](O)[C@H]1O` [N-HYDROXYCYTIDINE] to `COc1cccc2[nH]c(C(=O)N[C@@H](CC(C)C)C(=O)N[C@@H](C[C@@H]3CCNC3=O)C(=O)CO)cc12` [PF-00835231], the EC50 rises from 336 nM to 832 nM (2.5-fold). The first is the more potent here.

For `CC(C)C[C@H](NC(=O)c1cc2c(F)cccc2[nH]1)C(=O)NN(C[C@H]1CCNC1=O)C(=O)[C@H](F)Cl`, the EC50 was 131 nM.

What follows are compounds tested on SARS-CoV-2 (assay: microbe, parasite or virus in culture). Conditions: Severe acute respiratory syndrome coronavirus 2, omicron TY38-873 BA.1, HEK-293T.

First: COc1cccc2[nH]c(C(=O)N[C@@H](CC(C)C)C(=O)NN(C[C@@H]3CCNC3=O)C(=O)[C@H](F)Cl)cc12
Second: COc1cccc2[nH]c(C(=O)N[C@@H](CC(C)C)C(=O)NN(C[C@H]3CCNC3=O)C(=O)[C@H](F)Cl)cc12
The EC50 of the first is 5.8-fold lower: 10.1 nM for the first, 58.8 nM for the second.

First: CC(C)C[C@H](NC(=O)c1cc2c(F)cccc2[nH]1)C(=O)NN(C[C@@H]1CCNC1=O)C(=O)[C@@H](F)Cl
Second: CC(C)C[C@H](NC(=O)c1cc2c(F)cccc2[nH]1)C(=O)NN(C[C@@H]1CCNC1=O)C(=O)[C@H](F)Cl
The EC50 of the first is 4-fold higher: 35.6 nM for the first, 9.01 nM for the second. The second is the more potent here.

`O=c1nc(NO)ccn1[C@@H]1O[C@H](CO)[C@@H](O)[C@H]1O` [N-HYDROXYCYTIDINE] and `COc1cccc2[nH]c(C(=O)N[C@@H](CC(C)C)C(=O)N[C@@H](C[C@@H]3CCNC3=O)C(=O)CO)cc12` [PF-00835231] are within 1.5-fold of each other in EC50: 574 nM for the first, 775 nM for the second.

`CC(C)C[C@H](NC(=O)c1cc2c(F)cccc2[nH]1)C(=O)NN(C[C@H]1CCNC1=O)C(=O)[C@H](F)Cl` gave an EC50 of 58.7 nM.
